For 27 molecules, IC90 results are on record in US20230012368A1 (Hoffmann-La Roche Inc., priority 2018, published 2023).

The test deals with Acinetobacter baumannii ATCC 17978. In words: Antimicrobial susceptibility testing: 90% growth inhibitory concentration (IC90) determination. It is filed as cell-based. Particulars: 90% growth inhibitory concentration, Acinetobacter baumannii ATCC17978, Iso-Sensitest broth, OD 600 nm over 16h, read-out: ATCC17978 IC90. The procedure, abridged: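 Compounds serially twofold diluted (e.g. 50 to 0.097 μM final) in Iso-Sensitest broth, inoculated at ~5×10^(5) CFU/ml, incubated at 35±2° C. OD600 read every 20 minutes over 16h. IC90 taken as concentration inhibiting 90% of growth during logarithmic phase.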

The mark [1] stands for this setting: Acinetobacter baumannii, ATCC17978, 16 h.

Structures can show the parent of a compound that is named as a salt. Where two headings read alike, the source gives them in different places.

Consider `CCc1cc(Nc2nccn3c(-c4ccc(Oc5ccccn5)c(F)c4F)cnc23)ccc1C(=O)N(C)C` [Example 471, 4-[[3-[2,3-difluoro-4-(2-pyridyloxy)phenyl]imidazo [1,2-a]pyrazin-8-yl]amino]-2-ethyl-N,N-dimethyl-benzamide], for which the 90% effect concentration (IC90) under setting [1] stood at 660 nM.

On to `CCc1cc(Nc2nccn3c(-c4ccc(OC)c(F)c4F)cnc23)ccc1C(=O)NCCCNC(=O)[C@@H](N)CNC(=N)N` [Example 359, N-[3-[[(2S)-2-amino-3-carbamimidamidopropanoyl]amino]propyl]-4-[[3-(2,3-difluoro-4-methoxyphenyl)imidazo[1,2-a]pyrazin-8-yl]amino]-2-ethylbenzamide], for which the 90% effect concentration (IC90) under setting [1] amounted to 60 nM. The same measure, in the same setting: the same measure for `CCc1cc(Nc2nccn3c(-c4ccc(OC)c(F)c4F)cnc23)ccc1C(=O)N[C@H](C)CNC(=O)[C@@H](N)CCCCN` [Example 465, N-[(1R)-2-[[(2S)-2,6-diaminohexanoyl]amino]-1-methyl-ethyl]-4-[[3-(2,3-difluoro-4-methoxy-phenyl)imidazo[1,2-a]pyrazin-8-yl]amino]-2-ethyl-benzamide]: 300 nM; for `CCc1cc(Nc2nccn3c(-c4ccc(OC)c(F)c4F)cnc23)ccc1C(=O)NCC(O)CN1CCCC1` (stereo not drawn) [Example 304, 4-[[3-(2,3-difluoro-4-methoxyphenyl)imidazo[1,2-a]pyrazin-8-yl]amino]-2-ethyl-N-(2-hydroxy-3-pyrrolidin-1-ylpropyl)benzamide]: 360 nM.

`CNC(=O)c1ccc(Nc2nccn3c(-c4ccc(OC(F)F)cc4)cnc23)cc1[N+](=O)[O-]` [Example 54, 4-((3-(4-(difluoromethoxy)phenyl)imidazo[1,2-a]pyrazin-8-yl)amino)-N-methyl-2-nitrobenzamide]: the IC90 under setting [1] is 820 nM. Same read-out and setting: the same measure for `COc1ccc(-c2cnc3c(Nc4ccc(C(=O)NCC(=O)N5CCC(O)CC5)c(C)c4)nccn23)cc1` [Example 20, N-(2-(4-hydroxypiperidin-1-yl)-2-oxoethyl)-4-((3-(4-methoxyphenyl)imidazo [1,2-a]pyrazin-8-yl)amino)-2-methylbenzamide]: 650 nM; for `COc1ccc(-c2cnc3c(Nc4ccc(C(=O)NCCN5CCNCC5)c(Cl)c4)nccn23)c(F)c1F` [Example 59, 2-chloro-4-[[3-(2,3-difluoro-4-methoxy-phenyl)imidazo[1,2-a]pyrazin-8-yl]amino]-N-(2-piperazin-1-ylethyl)benzamide]: 130 nM. Same read-out and setting: in the case of `CCc1cc(Nc2nccn3c(-c4ccc(OC)c(F)c4F)cnc23)ccc1C(=O)NCC(O)CNC(=O)[C@@H](N)CCCCN` (mixture of isomers) [Example 412, rac-N-(3-((R)-2,6-diaminohexanamido)-2-hydroxypropyl)-4-((3-(2,3-difluoro-4-methoxyphenyl)imidazo[1,2-a]pyrazin-8-yl)amino)-2-ethylbenzamide dihydrochloride] it was 770 nM; in that of `CCc1cc(Nc2nccn3c(-c4ccc(OC(F)F)c(F)c4F)cnc23)ccc1C(=O)NC(C)CCN` (stereo not drawn) [Example 402, N-(4-aminobutan-2-yl)-4-((3-(4-(difluoromethoxy)-2,3-difluorophenyl)imidazo[1,2-a]pyrazin-8-yl)amino)-2-ethylbenzamide hydrochloride], 570 nM; in that of `Cc1cc(Nc2nccn3c(-c4ccc(OC(F)F)cc4)cnc23)ccc1C(=O)NCCCC[C@H](N)C(=O)O` [Example 271, (2S)-2-amino-6-[[4-[[3-[4-(difluoromethoxy)phenyl]im-idazo[1,2-a]pyrazin-8-yl]amino]-2-methylbenzoyl]amino]hexa-noic acid], 9300 nM. In the case of `CCc1cc(Nc2nccn3c(-c4ccc(OC)c(F)c4F)cnc23)ccc1C(=O)NCC1CCN(C(=N)N)CC1` [Example 298, N-[(1-carbamimidoylpiperidin-4-yl)methyl]-4-[[3-(2,3-difluoro-4-methoxyphenyl)imidazo[1,2-a]pyrazin-8-yl]amino]-2-ethylbenzamide], the IC90 under setting [1] was determined as 170 nM. On the same count and under the same terms, the same measure for `CCc1cc(Nc2nccn3c(-c4ccc(OC)c(F)c4F)cnc23)ccc1C(=O)NCc1ccncc1` [Example 560, 4-((3-(2,3-difluoro-4-methoxyphenyl)imidazo[1,2-a]pyrazin-8-yl)amino)-2-ethyl-N-(pyridin-4-ylmethyl)benzamide formate]: 80 nM. As to `COc1ccc(-c2cnc3c(Nc4ccc(C(=O)NCCN5CCNCC5=O)c(C)c4)nccn23)cc1F` [Example 248, 4-[[3-(3-fluoro-4-methoxyphenyl)imidazo[1,2-a]pyrazin-8-yl]amino]-2-methyl-N-[2-(2-oxopiperazin-1-yl)ethyl]benzamide;hydrochlo-ride], the concentration for an effect of 90% (IC90) under setting [1] was determined as 2400 nM. As to `CNC(=O)c1ccc(Nc2nccn3c(-c4ccc(OC(F)F)cc4)cnc23)cc1CCO` [Example 190, 4-[[3-[4-(difluoromethoxy)phenyl]im-idazo[1,2-a]pyrazin-8-yl]amino]-2-(2-hydroxyethyl)-N-methylbenzamide], the IC90 under setting [1] amounted to 330 nM.

`CCc1cc(Nc2nccn3c(-c4ccc(OC(F)F)c(F)c4F)cnc23)ccc1C(=O)NCCC(=O)NCCN(C)C` [Example 325, 4-[[3-[4-(difluoromethoxy)-2,3-difluorophenyl]imidazo[1,2-a]pyrazin-8-yl]amino]-N-[3-[2-(dimethylamino)ethylamino]-3-oxopropyl]-2-ethylbenzamide]: the 90% effect concentration (IC90) under setting [1] is 150 nM. The same measure, in the same setting: in the case of `COc1ccc(-c2cnc3c(Nc4ccc(C(=O)N[C@@H](C)CN)c(C)c4)nccn23)c(F)c1F` [Example 508, #N!-[(2#S!)-1-aminopropan-2-yl]-4-[[3-(2,3-difluoro-4-methoxyphenyl)imidazo[1,2-a]pyrazin-8-yl]amino]-2-methylbenzamide;dihydrochlo-ride] it was 320 nM. Still for that read-out and setting: in the case of `COc1ccc(-c2cnc3c(Nc4ccc(C(=O)NCC5CCN(C(=N)N)CC5)c(Cl)c4)nccn23)cc1F` [Example 296, N-[(1-carbamimidoylpiperidin-4-yl)methyl]-2-chloro-4-[[3-(3-fluoro-4-methoxyphenyl)imidazo[1,2-a]pyrazin-8-yl]amino]benzamide] it was 150 nM; in that of `COc1ccc(-c2cnc3c(Nc4ccc(C(=O)NCC5CNCCN5)c(C)c4)nccn23)cc1F` (stereo not drawn) [Example 246, 4-[[3-(3-fluoro-4-methoxyphenyl)imidazo[1,2-a]pyrazin-8-yl]amino]-2-methyl-N-(piperazin-2-ylmethyl)benzamide;hydrochlo-ride], 2200 nM; in that of `CCc1cc(Nc2nccn3c(-c4ccc(OC)c(F)c4F)cnc23)ccc1C(=O)NCCNC(=O)[C@@H](N)CN` [Example 400, N-[2-[[(2S)-2,3-diaminopropanoyl]amino]eth-yl]-4-[[3-(2,3-difluoro-4-methoxy-phenyl)imidazo[1,2-a]pyrazin-8-yl]amino]-2-ethyl-benzamide; formic acid], 320 nM. The same measure, in the same setting: the same measure for `COc1ccc(-c2cnc3c(Nc4ccc(C(=O)NCCCN5CCS(=O)(=O)CC5)c(C)c4)nccn23)cc1F` [Example 36, N-[3-(1,1-dioxo-1,4-thiazinan-4-yl)propyl]-4-[[3-(3-fluoro-4-methoxy-phenyl)imidazo[1,2-a]pyrazin-8-yl]amino]-2-methyl-benzamide; 2,2,2-trifluoroacetic acid]: 460 nM; for `COc1ccc(-c2cnc3c(Nc4ccc(C(=O)N5CCC(C(=O)NCC6CN(C)C6)CC5)c(C)c4)nccn23)cc1F` [REF 114, 1-(4-((3-(3-fluoro-4-methoxyphenyl)imidazo [1,2-a]pyrazin-8-yl)amino)-2-methylbenzoyl)-N-((1-methylazetidin-3-yl)methyl)piperidine-4-carboxamide]: 470 nM. On to `CCc1cc(Nc2nccn3c(-c4ccc(OCC#N)c(F)c4F)cnc23)ccc1C(=O)NCCNC(=O)[C@@H](N)CCCNC(=N)N` [Example 124, N-[2-[[(2S)-2-amino-5-guanidino-pentanoyl]amino]ethyl]-4-[[3-[4-(cyanomethoxy)-2,3-difluoro-phenyl]imidazo[1,2-a]pyrazin-8-yl]amino]-2-ethyl-benzamide formate], for which the IC90 under setting [1] came out at 90 nM. The same measure, in the same setting: in the case of `COc1ccc(-c2cnc3c(Nc4ccc(C(=O)N(C)CCN)cc4)nccn23)cc1` [Example 264, N-(2-aminoethyl)-4-[[3-(4-methoxyphenyl)imidazo[1,2-a]pyrazin-8-yl]amino]-N-methylbenzamide; hydrochlo-ride] it was 5100 nM; in that of `COc1ccc(-c2cnc3c(Nc4ccc(C(=O)NCC5CCNCC5)c(C)c4)nccn23)cc1F` [Example 213, 4-[[3-(3-fluoro-4-methoxyphenyl)imidazo[1,2-a]pyrazin-8-yl]amino]-2-methyl-N-(piperidin-4-ylmethyl)benzamide;hydrochlo-ride], 660 nM. Regarding `COc1ccc(-c2cnc3c(Nc4ccc(C(=O)NCCCN5CCN(C)C(=O)C5)c(C)c4)nccn23)c(F)c1F` [Example 66, 4-((3-(2,3-difluoro-4-methoxyphenyl)imidazo [1,2-a]pyrazin-8-yl)amino)-2-methyl-N-(3-(4-methyl-3-oxopiperazin-1-yl)propyl)benzamide], the concentration for an effect of 90% (IC90) under setting [1] stood at 310 nM. Turning to `COc1ccc(-c2cnc3c(Nc4ccc(C(=O)NCCCN)c(C(F)F)c4)nccn23)c(F)c1F` [Example 165, N-(3-aminopropyl)-4-[[3-(2,3-difluoro-4-methoxy-phenyl)imidazo[1,2-a]pyrazin-8-yl]amino]-2-(difluoromethyl)benzamide; formic acid], the 90% effect concentration (IC90) worked out at 530 nM. For `Cc1cc(Nc2nccn3c(-c4ccc(OCC#N)c(F)c4F)cnc23)ccc1C(=O)NC[C@H](N)CNC(=O)[C@@H]1C[C@@H](O)CN1` [Example 470, (2S,4R)-N-[(2S)-2-amino-3-[[4-[[3-[4-(cyanomethoxy)-2,3-difluoro-phenyl]imidazo[1,2-a]pyrazin-8-yl]amino]-2-methyl-benzoyl]amino]propyl]-4-hydroxy-pyrrolidine-2-carboxamide; formic acid], under setting [1], the IC90 was found to be 600 nM.
